{"source": "patent US12599660B2", "about": "“Therapeutic RNA for HPV-positive cancer” (priority 2020, dated 2026)", "tested_on": "TC-1 luc tumors", "assay": "TC-1 luc tumor model with E7 RNA-LPX and cisplatin chemotherapy: tumor growth and survival", "assay_type": "in vivo, C57BL/6 mice", "conditions": "40 μg RNA-LPX day 16, 80 μg cisplatin or PBS i.p. day 22 and 28", "description": "For therapeutic tumor experiments, C57BL/6 mice were injected with 1×10^5 TC-1 or TC-1 luc tumor cells and 5×10^5 C3 tumor cells subcutaneously into to the right flank. Tumor growth was measured unblinded with a caliper every three to four days and tumor volumes calculated by (a^2 x b)/2 (a, width; b, length). Mice were immunized intravenously with 40 μg E7 or control (OVA) RNA-LPX. Arrows in vaccination schemes indicate immunization. Mice were randomized according to their tumor size prior RNA-LPX immunization. The orthovoltage X-ray source XRAD320 (Precision X-Ray Inc.) was used for tumor irradiation, irradiating tumors locally with different doses at a dose rate of 0.47 Gy/min. Biological effective doses were calculated using the formula\nIn some experiments, mice received 80 μg cisplatin chemotherapy or PBS intraperitoneal (i.p.) twice after RNA-LPX vaccination.\nFor Example 9, Statistical analysis was performed with GraphPad PRISM 9. For tumor growth analysis, two-way analysis of variance (ANOVA) was performed and when determined significant (p<0.05), Tukey's multiple comparison test run.", "data": [{"smiles": "N.N.[Cl][Pt][Cl]", "note": "[Cisplatin, cis-diamminedichloroplatinum (II)]", "values": [{"measurement": "tumor growth", "result": "only slightly improved tumor growth"}]}]}
